Source: patent publication US8420670B2 (Abbott Laboratories, priority 2007, dated 2013)
Structures can show the parent of a compound that is named as a salt.

Key:
human GlyT1c transporter = target: T1, human GlyT1c transporter (Homo sapiens, UniProt P48067); test: [3H]-(R)-NPTS radioligand binding assay using recombinant hGlyT1 expressing cell membranes; conditions: 0.5 nM [3H]-(R)-NPTS, apparent Ki via Cheng-Prusoff, read-out: [3H]-(R)-NPTS bindung Ki
T1 construct: expressed in transfected cells; host or cells: recombinant hGlyT1-expressing cells
T1 sequence (P48067 1-706): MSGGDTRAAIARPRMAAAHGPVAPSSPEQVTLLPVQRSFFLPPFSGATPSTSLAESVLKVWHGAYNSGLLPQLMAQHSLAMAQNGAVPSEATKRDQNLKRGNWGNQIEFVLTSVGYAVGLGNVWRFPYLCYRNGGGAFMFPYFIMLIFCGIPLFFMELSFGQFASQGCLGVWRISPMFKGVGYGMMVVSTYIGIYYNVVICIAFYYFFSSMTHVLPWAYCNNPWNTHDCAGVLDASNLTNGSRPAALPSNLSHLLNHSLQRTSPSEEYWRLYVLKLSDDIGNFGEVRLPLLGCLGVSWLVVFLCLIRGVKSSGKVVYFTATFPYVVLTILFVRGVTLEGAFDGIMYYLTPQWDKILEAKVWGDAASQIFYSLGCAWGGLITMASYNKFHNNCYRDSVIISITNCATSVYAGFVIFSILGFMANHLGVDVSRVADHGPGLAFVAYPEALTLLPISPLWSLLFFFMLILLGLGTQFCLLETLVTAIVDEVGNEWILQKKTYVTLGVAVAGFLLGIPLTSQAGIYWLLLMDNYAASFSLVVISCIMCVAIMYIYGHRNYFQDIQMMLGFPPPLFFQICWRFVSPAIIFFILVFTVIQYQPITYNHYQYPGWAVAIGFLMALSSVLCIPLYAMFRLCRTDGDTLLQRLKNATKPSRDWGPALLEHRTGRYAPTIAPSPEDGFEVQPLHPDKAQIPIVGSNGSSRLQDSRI
Procedure: 2. [^3H]-(R)-NPTS Radioligand Binding Assays using Recombinant hGlyT1 Expressing Cell Membranes:
Radioligand binding to human GlyT1c transporter-expressing membranes was measured in duplicate in a total volume of 200 μl in 96-well plates. To 100 μl of membrane suspension (yielding a final membrane protein concentration of 50 μg/ml) in assay buffer (120 mM NaCl, 2 mM KCl, 10 mM Hepes, 1 mM MgCl2, 1 mM CaCl2, pH 7.5) […] of [^3H]-(R)NPTS (0.5 nM final) were added in assay buffer. For competition experiments 10 μl of buffer or unlabeled compound solution obtained from dilution series of test compounds in DMSO followed. An intermediate 1:10 dilution in assay buffer yielded a final DMSO concentration of 1%. Non-specific binding was determined in the presence of 10 μM Org24598 (or its racemate Org24461) for [^3H]-(R)-NPTS. After incubation at room temperature for 1 h, the incubation mixture was harvested (Tomtec Mach III U Harvester) through 96-well GF/B filter plates (PerkinElmer), presoaked for 1 h with 40 μl per well of 0.1% polyethylene-imine (PEI). After washing twice with ice-cold 50 mM Tris-HCl pH 7.4 buffer, drying and addition of 35 μl scintillator (BetaplateScint, PerkinElmer) per well followed. The radioactivity was determined by liquid scintillation spectrometry in a MicroBeta (PerkinElmer) plate counter.
Data analysis: For binding of [^3H]-(R)-NPTS to cell membranes, the calculation of Kd and Bmax values from the saturation binding assays and the IC50 values from the displacement binding was performed by iterative non-linear regression analysis adapted from the ‘Ligand’ program (Munson and Rodbard, 1980). Radioligand displacement curves in absence or in presence of increasing concentrations of tested compounds were fitted using a one-site fit and the apparent Ki values were calculated from the IC50 values using the Cheng-Prusoff equation (Cheng and Prusoff 1973).

Human GlyT1c = target: T2, Human GlyT1c (Homo sapiens, UniProt P48067); test: Glycine uptake in recombinant hGlyT1 expressing cells; format: cell-based; conditions: hGlyT1c_5_CHO cells; [3H]-glycine uptake, 60-120 min
T2 construct: expressed in transfected cells; host or cells: CHO (hGlyT1c_5_CHO clone)
T2 sequence (P48067 1-706): T1 sequence (P48067 1-706)
Procedure: 1. Glycine Uptake in Recombinant hGlyT1 Expressing Cells:
Human GlyT1c expressing recombinant hGlyT1c—5_CHO cells were plated at 20,000 cells per well in 96 well Cytostar-T scintillation microplates (Amersham Biosciences) and cultured to sub-confluency for 24 h. For glycine uptake assays the culture medium was aspirated and the cells were washed once with 100 μl HBSS (Gibco BRL, #14025-050) with 5 mM L-Alanine (Merck #1007). 80 μl HBSS buffer were added, followed by 10 μl inhibitor or vehicle (10% DMSO) and 10 μl [^3H]-glycine (TRK71, Amersham Biosciences) to a final concentration of […] for initiation of glycine uptake. The plates were placed in a Wallac Microbeta (PerkinElmer) and continuously counted by solid phase scintillation spectrometry during up to 3 hours. Nonspecific uptake was determined in the presence of 10 μM Org24598. IC50 calculations were made by four-parametric logistic nonlinear regression analysis (GraphPad Prism) using determinations within the range of linear increase of [^3H]-glycine incorporation between 60 and 120 min.

Ki (human GlyT1c transporter)	IC50 (Human GlyT1c)	SMILES
≤ 0.01 µM	≤ 0.1 µM	COc1cccc2c(NC(CN(C)C)c3ccc(Cl)cc3)cc(C)nc12 (racemic) [Example 68, (rac)-1-(4-Chlorophenyl)-N*1*-(8-methoxy-2-methylquinolin-4-yl)-N*2*,N*2*-dimethylethane-1,2-diamine dihydrochloride]
≤ 1 µM	≤ 10 µM	Cc1cc(NCc2ccc(Cl)c(Cl)c2)c2cccc(S(=O)(=O)N(C)C)c2n1 [Example 1, 4-(3,4-Dichlorobenzylamino)-2-methylquinoline-8-sulfonic dimethylamide]
≤ 1 µM	≤ 1000 µM	Cc1cc(NCc2ccc(Cl)c(Cl)c2)c2cccc(S(N)(=O)=O)c2n1 [Example 2, 4-(3,4-Dichlorobenzylamino)-2-methylquinoline-8-sulfonamide]
≤ 1 µM	≤ 10 µM	Cc1cc(NCc2ccc(Cl)c(Cl)c2)c2cccc(S(=O)(=O)NC(C)C)c2n1 [Example 3, 4-(3,4-Dichlorobenzylamino)-2-methyl-quinoline-8-sulfonic isopropylamide]
≤ 1 µM	≤ 100 µM	Cc1cc(NCc2ccc(Cl)c(Cl)c2)c2cccc(S(=O)(=O)Nc3ccc(Cl)cc3)c2n1 [Example 4, 4-(3,4-Dichlorobenzylamino)-2-methylquinoline-8-sulfonic (4-chlorophenyl)-amide]
≤ 0.1 µM	≤ 0.1 µM	Cc1cc(NCc2ccc(Cl)c(Cl)c2)c2cccc(N)c2n1 [Example 5, N*4*-(3,4-Dichlorobenzyl)-2-methylquinoline-4,8-diamine]
≤ 0.1 µM	≤ 1 µM	Cc1cc(NCc2ccc(Cl)c(Cl)c2)c2cccc(N3CCOCC3)c2n1 [Example 6, (3,4-Dichlorobenzyl)-(2-methyl-8-morpholin-4-yl-quinolin-4-yl)-amine hydrobromide]
≤ 1 µM	≤ 1 µM	Cc1cc(NCc2ccc(Cl)c(Cl)c2)c2cccc(N3CCCC3)c2n1 [Example 7, (3,4-Dichlorobenzyl)-(2-methyl-8-pyrrolidin-1-yl-quinolin-4-yl)-amine hydrochloride]
≤ 1 µM	≤ 10 µM	Cc1cc(NCc2ccc(Cl)c(Cl)c2)c2cccc(NS(=O)(=O)c3ccccc3)c2n1 [Example 8, N-[4-(3,4-Dichlorobenzylamino)-2-methylquinolin-8-yl]-phenylsulfonamide]
≤ 0.1 µM	≤ 1 µM	CCNc1cccc2c(NCc3ccc(Cl)c(Cl)c3)cc(C)nc12 [Example 9, N*4*-(3,4-Dichlorobenzyl)-N*8*-ethyl-2-methylquinolin-4,8-diamine]
≤ 1 µM	≤ 100 µM	Cc1cc(NCc2ccc(Cl)c(Cl)c2)c2cccc(NC(=O)c3ccccc3)c2n1 [Example 10, N-[4-(3,4-Dichlorobenzylamino)-2-methylquinolin-8-yl]-benzamide]
≤ 10 µM	≤ 100 µM	Cc1cc(NCc2ccc(Cl)c(Cl)c2)c2cccc(N(S(C)(=O)=O)S(C)(=O)=O)c2n1 [Example 11, N-[4-(3,4-Dichlorobenzylamino)-2-methylquinolin-8-yl]-bis-methanesulfonamide]
≤ 1 µM	≤ 10 µM	Cc1cc(NCc2ccc(Cl)c(Cl)c2)c2cccc(NS(C)(=O)=O)c2n1 [Example 12, N-[4-(3,4-Dichlorobenzylamino)-2-methylquinolin-8-yl]-methanesulfonamide]
≤ 1 µM	≤ 1 µM	CC(=O)Nc1cccc2c(NCc3ccc(Cl)c(Cl)c3)cc(C)nc12 [Example 13, N-[4-(3,4-Dichlorobenzylamino)-2-methylquinolin-8-yl]-acetamide]
≤ 10 µM	≤ 10 µM	Cc1cc(NCc2ccc(Cl)c(Cl)c2)c2cccc(NC(=O)C(C)C)c2n1 [Example 14, N-[4-(3,4-Dichlorobenzylamino)-2-methylquinolin-8-yl]-isobutyramide]
≤ 0.1 µM	≤ 1 µM	CNc1cccc2c(NCc3ccc(Cl)c(Cl)c3)cc(C)nc12 [Example 15, N*4*-(3,4-Dichlorobenzyl)-N*8*-methyl-2-methylquinolin-4,8-diamine]
≤ 0.1 µM	≤ 1 µM	Cc1cc(NCc2ccc(Cl)c(Cl)c2)c2cccc(N(C)C)c2n1 [Example 16, N*4*-(3,4-Dichlorobenzyl)-N*8*-dimethyl-2-methylquinolin-4,8-diamine hydrochloride]
≤ 1 µM	≤ 10 µM	Cc1ccc(S(=O)(=O)N2CCN(c3cccc4c(NCc5ccc(Cl)c(Cl)c5)cc(C)nc34)CC2)cc1 [Example 17, (3,4-Dichlorobenzyl)-{2-methyl-8-[4-(toluene-4-sulfonyl)-piperazin-1-yl]-quinolin-4-yl}-amine]
≤ 0.1 µM	≤ 1 µM	Cc1cc(NCc2ccc(Cl)c(Cl)c2)c2cccc(N3CCNCC3)c2n1 [Example 18, (3,4-Dichlorobenzyl)-(2-methyl-8-piperazin-1-yl-quinolin-4-yl)-amine dihydrochloride]
≤ 0.1 µM	≤ 0.1 µM	Cc1cc(NCc2ccc(Cl)c(Cl)c2)c2cccc(OCCNC(=O)OC(C)(C)C)c2n1 [Example 19, {2-[4-(3,4-Dichlorobenzylamino)-2-methylquinolin-8-yloxy]-ethyl}-carbamate tert-butyl ester]
≤ 0.01 µM	≤ 1 µM	Cc1cc(NCc2ccc(Cl)c(Cl)c2)c2cccc(OCCN)c2n1 [Example 20, [8-(2-Aminoethoxy)-2-methylquinolin-4-yl]-(3,4-dichlorobenzyl)-amine dihydrochloride]
≤ 0.01 µM	≤ 0.1 µM	Cc1cc(NCc2ccc(Cl)c(Cl)c2)c2cccc(OCCNS(C)(=O)=O)c2n1 [Example 21]
≤ 0.01 µM	≤ 0.1 µM	Cc1cc(NCc2ccc(Cl)c(Cl)c2)c2cccc(OCCNC(=O)c3ccccc3)c2n1 [Example 22]
≤ 0.01 µM	≤ 1 µM	Cc1cc(NCc2ccc(Cl)c(Cl)c2)c2cccc(OCCNS(=O)(=O)c3ccccc3)c2n1 [Example 23, hydrochloride]
≤ 0.1 µM	≤ 1 µM	CC(=O)NCCOc1cccc2c(NCc3ccc(Cl)c(Cl)c3)cc(C)nc12 [Example 24, N-{2-[4-(3,4-Dichlorobenzylamino)-2-methylquinolin-8-yloxy]-ethyl}-acetamide]
≤ 1 µM	≤ 1 µM	Cc1cc(NCc2ccc(Cl)c(Cl)c2)c2cccc(OCCNC(=O)C(C)C)c2n1 [Example 26, N-{2-[4-(3,4-Dichlorobenzylamino)-2-methylquinolin-8-yloxy]-ethyl}-isobutyramide]
≤ 0.01 µM	≤ 0.01 µM	CCS(=O)(=O)NCCOc1cccc2c(NCc3ccc(Cl)c(Cl)c3)cc(C)nc12 [Example 27, Ethanesulfonic {2-[4-(3,4-Dichloro-benzylamino)-2-methylquinolin-8-yloxy]-ethyl}-amide]
